Assay results reported in PubChem BioAssay (NCI).
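Each compound was tested at five concentrations against cells in 96-well plates for 48 hours. GI50: concentration for 50% inhibition of growth. The concentration for full growth arrest is given as TGI.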

How the values were obtained:
Assay in all cases: NCI-60 cell line screen, 48 h
A498 renal = tested on: A498 renal
SNB-75 CNS = tested on: SNB-75 CNS
CCRF-CEM leukemia = tested on: CCRF-CEM leukemia
NCI-H226 lung = tested on: NCI-H226 lung
DMS 273 small cell lung = tested on: DMS 273 small cell lung
HT29 colon = tested on: HT29 colon
CAKI-1 renal = tested on: CAKI-1 renal
SF-539 CNS = tested on: SF-539 CNS
NCI-H522 lung = tested on: NCI-H522 lung
M14 melanoma = tested on: M14 melanoma

## Nc1ncnc2c1ncn2C1CCC(CO)O1 (stereo not given)
A498 renal
  TGI: > 100 µM
SNB-75 CNS
  TGI: > 100 µM
CCRF-CEM leukemia
  TGI: > 100 µM
NCI-H226 lung
  TGI: > 74.7 µM
DMS 273 small cell lung
  TGI: > 100 µM
HT29 colon
  TGI: > 67.2 µM
CAKI-1 renal
  TGI: > 100 µM
SF-539 CNS
  TGI: > 100 µM
NCI-H522 lung
  TGI: > 100 µM

## CCOP(=O)(OCC)C(Cc1ccc(OC)c(OC)c1)N=C(c1ccccc1)c1ccccc1 (stereo not given)
A498 renal
  TGI: > 100 µM
SNB-75 CNS
  TGI: 81.1 µM
CCRF-CEM leukemia
  TGI: 96.9 µM
NCI-H226 lung
  TGI: > 100 µM
HT29 colon
  TGI: > 100 µM
CAKI-1 renal
  TGI: > 100 µM
M14 melanoma
  TGI: > 100 µM
SF-539 CNS
  TGI: > 100 µM
NCI-H522 lung
  TGI: 97.3 µM

## CC(C)=CCc1c(C)cc2cc3c(c(O)c2c1O)C(O)=CC(=O)C3(CC=C(C)C)C/C=C(\C)CO (stereo not given)
A498 renal
  TGI: 15.2 µM
SNB-75 CNS
  TGI: 92.8 µM
CCRF-CEM leukemia
  TGI: 60.1 µM
NCI-H226 lung
  TGI: 77 µM
DMS 273 small cell lung
  TGI: 109 µM
HT29 colon
  TGI: 81.4 µM
CAKI-1 renal
  TGI: 91.3 µM
SF-539 CNS
  TGI: 76.2 µM
NCI-H522 lung
  TGI: 65.2 µM

## CC[C@@H](C(=O)[C@@H](C)[C@@H](O)[C@H](C)CCc1ccc(C)c(O)c1C(=O)O)[C@H]1O[C@](CC)([C@H]2CC[C@](O)(CC)[C@H](C)O2)C[C@@H]1C
A498 renal
  TGI: 2.37 µM
SNB-75 CNS
  TGI: 7.07 µM
CCRF-CEM leukemia
  TGI: 6.29 µM
NCI-H226 lung
  TGI: 10.8 µM
DMS 273 small cell lung
  TGI: 8.1 µM
HT29 colon
  TGI: 12.6 µM
CAKI-1 renal
  TGI: 11.7 µM
M14 melanoma
  TGI: 13.8 µM
SF-539 CNS
  TGI: 5.46 µM
NCI-H522 lung
  TGI: 3.11 µM

## COc1c2c(cc3c(CCc4ccccc4)cc(=O)oc13)CCC(C)(C)O2
SNB-75 CNS
  TGI: > 100 µM
CCRF-CEM leukemia
  TGI: > 100 µM
NCI-H226 lung
  TGI: > 100 µM
DMS 273 small cell lung
  TGI: > 100 µM
HT29 colon
  TGI: > 100 µM
M14 melanoma
  TGI: > 100 µM

## CCOc1ccc2c(ccc(/C=C\c3cc(C)c4cccnc4c3O)[n+]2C)c1
A498 renal
  TGI: 9.1 µM
SNB-75 CNS
  TGI: 15 µM
NCI-H226 lung
  TGI: 3.77 µM
HT29 colon
  TGI: > 32.8 µM
CAKI-1 renal
  TGI: 29.3 µM
M14 melanoma
  TGI: 18.7 µM
SF-539 CNS
  TGI: 10.9 µM
NCI-H522 lung
  TGI: 5.14 µM

## O=C1CN2C(Cl)(Cl)C2(c2ccccc2)c2cc(Cl)ccc2N1CC(F)(F)F (stereo not given)
SNB-75 CNS
  TGI: 51.2 µM
CCRF-CEM leukemia
  TGI: 42.3 µM
NCI-H226 lung
  TGI: 67 µM
DMS 273 small cell lung
  TGI: 72.7 µM
HT29 colon
  TGI: 48.1 µM
CAKI-1 renal
  TGI: > 100 µM
M14 melanoma
  TGI: 77.5 µM
NCI-H522 lung
  TGI: 42.7 µM

## CCOc1ccc(/C=C/[N+](=O)[O-])cc1
A498 renal
  GI50: 2.79 µM
  TGI: 11.5 µM
SNB-75 CNS
  GI50: 13 µM
  TGI: 30.9 µM
CCRF-CEM leukemia
  GI50: 3.23 µM
  TGI: 52.3 µM
NCI-H226 lung
  GI50: 3.06 µM
  TGI: 11.7 µM
HT29 colon
  GI50: 2.32 µM
  TGI: 5.27 µM
CAKI-1 renal
  GI50: 37 µM
  TGI: > 100 µM
M14 melanoma
  GI50: 2.06 µM
  TGI: 4.24 µM
SF-539 CNS
  GI50: 2.35 µM
  TGI: 6.4 µM
NCI-H522 lung
  GI50: 13.2 µM
  TGI: 28 µM

## [C-]#[O+].[Cl][Sn]([Cl])[Cl].[Cl][Sn]([Cl])[Cl].[Pt].c1ccncc1
A498 renal
  TGI: > 100 µM
SNB-75 CNS
  TGI: > 100 µM
CCRF-CEM leukemia
  TGI: > 100 µM
NCI-H226 lung
  TGI: > 100 µM
DMS 273 small cell lung
  TGI: > 100 µM
HT29 colon
  TGI: > 100 µM
CAKI-1 renal
  TGI: > 100 µM
SF-539 CNS
  TGI: > 100 µM
NCI-H522 lung
  TGI: > 65.3 µM

## O=C(O)c1cc(=O)[nH]c(=S)[nH]1
A498 renal
  TGI: > 100 µM
SNB-75 CNS
  TGI: > 100 µM
CCRF-CEM leukemia
  TGI: > 100 µM
NCI-H226 lung
  TGI: > 100 µM
HT29 colon
  TGI: > 100 µM
CAKI-1 renal
  TGI: > 100 µM
M14 melanoma
  TGI: > 100 µM
NCI-H522 lung
  TGI: > 100 µM

## O=C(Nc1nc2ccc([N+](=O)[O-])cc2[n+]([O-])n1)C(F)(F)F
A498 renal
  TGI: 65.5 µM
SNB-75 CNS
  TGI: > 100 µM
CCRF-CEM leukemia
  TGI: > 100 µM
NCI-H226 lung
  TGI: > 100 µM
HT29 colon
  TGI: > 100 µM
CAKI-1 renal
  TGI: > 100 µM
M14 melanoma
  TGI: > 100 µM
SF-539 CNS
  TGI: > 100 µM
NCI-H522 lung
  TGI: > 100 µM

## CC(C)=CC(=O)OC1C2C(C)C(=O)OC2C(O)C(C)C2C=CC(=O)C21C (stereo not given)
A498 renal
  TGI: 3.29 µM
SNB-75 CNS
  TGI: 6.67 µM
CCRF-CEM leukemia
  TGI: 8.18 µM
NCI-H226 lung
  TGI: 11.6 µM
DMS 273 small cell lung
  TGI: 8.85 µM
HT29 colon
  TGI: 7.94 µM
CAKI-1 renal
  TGI: 7.71 µM
SF-539 CNS
  TGI: 9.5 µM
NCI-H522 lung
  TGI: 1.57 µM

## CCCCN(CCCC)CCCCNc1c(C)cnc2cc(Cl)ccc12
A498 renal
  TGI: 86.5 µM
CCRF-CEM leukemia
  TGI: > 100 µM
NCI-H226 lung
  TGI: 43.4 µM
HT29 colon
  TGI: 57.8 µM
M14 melanoma
  TGI: 4.05 µM
SF-539 CNS
  TGI: 27 µM
NCI-H522 lung
  TGI: 35.6 µM

## Cc1ccc(S(=O)(=O)Oc2cc(S(=O)(=O)O)cc3cc(S(=O)(=O)O)cc(N)c23)cc1
A498 renal
  TGI: > 100 µM
SNB-75 CNS
  TGI: > 100 µM
CCRF-CEM leukemia
  TGI: > 100 µM
NCI-H226 lung
  TGI: > 100 µM
HT29 colon
  TGI: > 100 µM
CAKI-1 renal
  TGI: > 100 µM
M14 melanoma
  TGI: > 100 µM
SF-539 CNS
  TGI: > 100 µM
NCI-H522 lung
  TGI: > 100 µM

## CCN(CC)CCCC(Nc1c2ccc(Cl)cc2nc2ccc(OC)cc12)c1ccc(F)cc1 (stereo not given)
A498 renal
  GI50: 7.37 µM
  TGI: 21.4 µM
SNB-75 CNS
  GI50: 1.21 µM
  TGI: 2.66 µM
CCRF-CEM leukemia
  GI50: 2.4 µM
  TGI: 6.49 µM
NCI-H226 lung
  GI50: 20.9 µM
  TGI: 47.5 µM
HT29 colon
  GI50: 2.7 µM
  TGI: 9.87 µM
CAKI-1 renal
  GI50: 1.73 µM
  TGI: 3.79 µM
M14 melanoma
  GI50: 1.88 µM
  TGI: 3.58 µM
SF-539 CNS
  GI50: 1.73 µM
  TGI: 3.25 µM
NCI-H522 lung
  GI50: 2.01 µM
  TGI: 4.58 µM

## CN1C2C=C(c3ccccc3)CC1CC2 (stereo not given)
A498 renal
  TGI: > 100 µM
SNB-75 CNS
  TGI: > 100 µM
CCRF-CEM leukemia
  TGI: > 100 µM
HT29 colon
  TGI: > 100 µM
M14 melanoma
  TGI: > 100 µM
SF-539 CNS
  TGI: > 100 µM
NCI-H522 lung
  TGI: > 100 µM

## O=C(Nc1ccc(Cl)cc1)/C(Cc1cccc[n+]1[O-])=N\Nc1ccc([N+](=O)[O-])cc1[N+](=O)[O-]
A498 renal
  TGI: > 100 µM
SNB-75 CNS
  TGI: > 100 µM
CCRF-CEM leukemia
  TGI: > 100 µM
DMS 273 small cell lung
  TGI: > 100 µM
CAKI-1 renal
  TGI: > 100 µM
M14 melanoma
  TGI: > 100 µM
SF-539 CNS
  TGI: > 100 µM
NCI-H522 lung
  TGI: > 100 µM

## c1ccc2c(c1)nc1n2CSC1
A498 renal
  TGI: > 100 µM
SNB-75 CNS
  TGI: > 100 µM
CCRF-CEM leukemia
  TGI: > 100 µM
NCI-H226 lung
  TGI: > 100 µM
DMS 273 small cell lung
  TGI: > 100 µM
HT29 colon
  TGI: > 100 µM
CAKI-1 renal
  TGI: > 100 µM
M14 melanoma
  TGI: > 100 µM
SF-539 CNS
  TGI: > 100 µM
NCI-H522 lung
  TGI: > 100 µM

## CC1=C[C@]2(CC(C)C3C(CC4(C)C5CCC6C(C)(C)C(=O)CC[C@@]67C[C@@]57CC[C@]34C)O2)OC1=O (stereo not given in full)
A498 renal
  TGI: > 100 µM
SNB-75 CNS
  TGI: 42.1 µM
CCRF-CEM leukemia
  TGI: > 100 µM
NCI-H226 lung
  TGI: 22 µM
DMS 273 small cell lung
  TGI: 32.6 µM
HT29 colon
  TGI: > 100 µM
CAKI-1 renal
  TGI: 62.2 µM
M14 melanoma
  TGI: > 100 µM
SF-539 CNS
  TGI: 42.5 µM

## CN1CCN(Cc2ccc(NC(=O)c3ccc(C#N)c(C#Cc4cnc(N)c5ncccc45)c3)cc2C(F)(F)F)CC1
A498 renal
  GI50: 3.25 µM
  TGI: 10.6 µM
CAKI-1 renal
  GI50: 1.91 µM
  TGI: 5.04 µM
SF-539 CNS
  GI50: 1.52 µM
  TGI: 3.06 µM
NCI-H522 lung
  GI50: 2.94 µM
  TGI: 28.6 µM

## CC(=O)[O-].CC(=O)[O-].[NH2-].[Pt+2].c1ccncc1
A498 renal
  TGI: > 100 µM
SNB-75 CNS
  TGI: > 100 µM
CCRF-CEM leukemia
  TGI: > 100 µM
NCI-H226 lung
  TGI: > 100 µM
HT29 colon
  TGI: > 100 µM
CAKI-1 renal
  TGI: > 100 µM
M14 melanoma
  TGI: > 100 µM
SF-539 CNS
  TGI: 55.1 µM
NCI-H522 lung
  TGI: 44.2 µM

## O=C1Nc2ccccc2Nc2nc3cccccc-3c21
SNB-75 CNS
  TGI: > 100 µM
CCRF-CEM leukemia
  TGI: > 100 µM
NCI-H226 lung
  TGI: > 100 µM
DMS 273 small cell lung
  TGI: > 100 µM
HT29 colon
  TGI: > 100 µM
CAKI-1 renal
  TGI: > 100 µM
M14 melanoma
  TGI: > 100 µM
SF-539 CNS
  TGI: > 100 µM
NCI-H522 lung
  TGI: > 100 µM

## CC1(C)CCc2cc3c(-c4ccccc4)cc(=O)oc3cc2O1
A498 renal
  TGI: > 100 µM
SNB-75 CNS
  TGI: 71.5 µM
CCRF-CEM leukemia
  TGI: > 100 µM
NCI-H226 lung
  TGI: > 100 µM
DMS 273 small cell lung
  TGI: > 100 µM
HT29 colon
  TGI: > 100 µM
CAKI-1 renal
  TGI: > 100 µM
M14 melanoma
  TGI: > 100 µM
SF-539 CNS
  TGI: > 100 µM
NCI-H522 lung
  TGI: > 100 µM

## Cc1nc2ccccc2c(=O)n1CC(=O)O
A498 renal
  TGI: > 100 µM
SNB-75 CNS
  TGI: > 100 µM
CCRF-CEM leukemia
  TGI: > 100 µM
NCI-H226 lung
  TGI: > 100 µM
DMS 273 small cell lung
  TGI: > 100 µM
HT29 colon
  TGI: > 100 µM
CAKI-1 renal
  TGI: > 100 µM
SF-539 CNS
  TGI: > 100 µM
NCI-H522 lung
  TGI: > 100 µM
